{
  "source": "ChEMBL document CHEMBL5352391",
  "about": "“New structural classes of antimalarials” (Eur J Med Chem, 2022)",
  "key": {"[1]": {"test_system": "Plasmodium falciparum", "test": "Antimalarial activity against Plasmodium falciparum FCBR assessed as inhibition of parasite growth by SYTOX Green dye based high-throughput assay", "assay_type": "functional, organism-based"}, "[2]": {"target": "T1, Falcipain 2 (Plasmodium falciparum, UniProt Q9N6S8)", "T1 sequence (Q9N6S8 whole entry)": "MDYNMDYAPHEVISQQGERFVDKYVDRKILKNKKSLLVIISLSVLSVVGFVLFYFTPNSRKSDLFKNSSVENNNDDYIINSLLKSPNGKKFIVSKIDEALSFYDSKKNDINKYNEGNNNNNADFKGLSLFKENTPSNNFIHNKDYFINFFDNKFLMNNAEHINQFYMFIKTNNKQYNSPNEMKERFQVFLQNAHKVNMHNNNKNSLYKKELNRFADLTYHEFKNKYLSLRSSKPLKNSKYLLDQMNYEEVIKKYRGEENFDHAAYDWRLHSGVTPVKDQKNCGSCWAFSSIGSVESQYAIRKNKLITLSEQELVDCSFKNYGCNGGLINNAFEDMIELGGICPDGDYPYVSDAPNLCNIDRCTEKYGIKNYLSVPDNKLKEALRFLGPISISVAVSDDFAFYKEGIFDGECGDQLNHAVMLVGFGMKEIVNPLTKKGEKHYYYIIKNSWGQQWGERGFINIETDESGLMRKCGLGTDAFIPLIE", "test": "Inhibition of Plasmodium falciparum recombinant His-tagged falcipain-2 expressed in Escherichia coli assessed as inhibition constant using Cbz-Phe-Arg-AMC as substrate by fluorescence spectrophotometer assay"}, "[3]": {"test_system": "Plasmodium vinckei", "test": "Antimalarial activity against Plasmodium vinckei infected in Swiss OF1 mouse assessed as reduction of parasitaemia at 10 mg/kg,po administrated for four consecutive days and measured on day 5 by Giemsa staining based microscopic analysis", "assay_type": "functional", "set-up": "scale not given: the % may be the effect or the level left", "conditions": "time 5 day"}, "[4]": {"test_system": "Plasmodium vinckei", "test": "Antimalarial activity against Plasmodium vinckei infected in Swiss OF1 mouse assessed as reduction in parasite growth by measuring its effective dose administrated orally for four consecutive days and measured on day 5 by Giemsa staining based microscopic analysis", "assay_type": "functional", "conditions": "120 h, route po, time 5 day"}, "[5]": {"test_system": "Plasmodium falciparum", "test": "Antiplasmodial activity against chloroquine resistant Plasmodium falciparum W2 assessed as inhibition of parasite growth incubated for 48 hrs by SYBR green I dye based fluorescence assay", "assay_type": "functional, organism-based", "conditions": "W2, 48 h"}, "[6]": {"test_system": "Plasmodium falciparum", "test": "Antiplasmodial activity against chloroquine sensitive Plasmodium falciparum 3D7 assessed as inhibition of parasite growth incubated for 48 hrs by SYBR green I dye based fluorescence assay", "assay_type": "functional, organism-based", "conditions": "3D7, 48 h"}, "[7]": {"test": "Selectivity index, ratio of CC50 for cytotoxicity against human HepG2 cells by MTT assay to IC50 for antiplasmodial activity against chloroquine sensitive Plasmodium falciparum 3D7 by SYBR green I dye based fluorescence assay", "assay_type": "toxicity, cell-based", "conditions": "read-out: Ratio CC50/IC50"}, "[8]": {"test_system": "Plasmodium falciparum", "test": "Additive antiplasmodial activity against Plasmodium falciparum NF54 gametocytes infected in human erythrocyte assessed as inhibition of parasite growth by measuring minimum inhibitory concentration incubated for 48 hrs in presence of chloroquine by SYBR Green dye based fluorescence assay", "assay_type": "functional"}, "[9]": {"test_system": "Plasmodium falciparum", "test": "Additive antiplasmodial activity against Plasmodium falciparum NF54 gametocytes infected in human erythrocyte assessed as inhibition of parasite growth by measuring minimum inhibitory concentration incubated for 48 hrs in presence of lumefantrine by SYBR Green dye based fluorescence assay", "assay_type": "functional"}, "[10]": {"test_system": "Plasmodium falciparum", "test": "Antiplasmodial activity against Plasmodium falciparum NF54 gametocytes infected in human erythrocyte assessed as inhibition of parasite growthVincubated for 48 hrs by SYBR Green dye based fluorescence assay", "assay_type": "functional, organism-based"}, "[11]": {"test_system": "Plasmodium falciparum", "test": "Additive antiplasmodial activity against Plasmodium falciparum NF54 gametocytes infected in human erythrocyte assessed as inhibition of parasite growth by measuring minimum inhibitory concentration incubated for 48 hrs in presence of mefloquine by SYBR Green dye based fluorescence assay", "assay_type": "functional"}, "[12]": {"test_system": "Plasmodium falciparum", "test": "Antiplasmodial activity against Plasmodium falciparum TM91-C23 assessed as inhibition of parasite growth incubated for 72 hrs by SYBR Green I dye based fluorescence assay", "assay_type": "functional, organism-based", "conditions": "TM91-C23, 72 h"}, "[13]": {"test_system": "Plasmodium falciparum", "test": "Antiplasmodial activity against Plasmodium falciparum TM90-C2A assessed as inhibition of parasite growth incubated for 72 hrs by SYBR Green I dye based fluorescence assay", "assay_type": "functional, organism-based"}, "[14]": {"test_system": "Plasmodium falciparum", "test": "Antiplasmodial activity against Plasmodium falciparum W2 assessed as inhibition of parasite growth incubated for 72 hrs by SYBR Green I dye based fluorescence assay", "assay_type": "functional, organism-based", "conditions": "W2, 72 h"}, "[15]": {"test_system": "Plasmodium falciparum", "test": "Antiplasmodial activity against Plasmodium falciparum TM90-C2B assessed as inhibition of parasite growth incubated for 72 hrs by SYBR Green I dye based fluorescence assay", "assay_type": "functional, organism-based"}, "[16]": {"test_system": "Plasmodium falciparum", "test": "Antiplasmodial activity against chloroquine resistant Plasmodium falciparum K1 infected in human RBC assessed as inhibition of parasite growth incubated for 48 hrs by optical microscopy analysis", "assay_type": "functional, organism-based", "conditions": "K1, Erythrocyte"}, "[17]": {"test_system": "Plasmodium falciparum", "test": "Antiplasmodial activity against Plasmodium falciparum 3D7 assessed as inhibition of parasite growth incubated for 72 hrs by LDH assay based spectrofluorometric analysis", "assay_type": "functional, organism-based", "conditions": "3D7, 72 h"}, "[18]": {"test_system": "Plasmodium falciparum", "test": "Antiplasmodial activity against chloroquine resistant Plasmodium falciparum Dd2 assessed as inhibition of parasite growth incubated for 72 hrs by LDH assay based spectrofluorometric analysis", "assay_type": "functional, organism-based", "conditions": "Dd2, 72 h"}, "[19]": {"test_system": "Plasmodium berghei", "test": "Antimalarial activity against Plasmodium berghei ANKA infected in Swiss albino mouse assessed as reduction in parasitemia at 50 micromol/kg,po administrated for 4 days by Giemsa staining based microscopic analysis", "assay_type": "functional", "set-up": "scale not given: the % may be the effect or the level left", "conditions": "dose 50 µmol/kg, time 4 day"}, "[20]": {"test_system": "Plasmodium falciparum", "test": "Antiplasmodial activity against chloroquine resistant Plasmodium falciparum RKL9 infected in human erythrocyte assessed as inhibition of parasite growth incubated for 24 hrs by two fold serial dilution assay", "assay_type": "functional, organism-based"}, "[21]": {"test": "Selectivity index, ratio of CC50 for cytotoxicity against human HepG2 cells by MTT assay to IC50 for antiplasmodial activity against chloroquine resistant Plasmodium falciparum W2 by SYBR green I dye based fluorescence assay", "assay_type": "toxicity, cell-based", "conditions": "read-out: Ratio CC50/IC50"}, "[22]": {"test_system": "Plasmodium berghei", "test": "Antimalarial activity against Plasmodium berghei ANKA infected in mouse assessed as reduction in parasitemia by measuring effective dose at administrated orally for 4 days by flow cytometry analysis", "assay_type": "functional", "conditions": "96 h, route po, time 4 day"}},
  "data": [
    {"molecule": "N=C(NC(=O)OCc1ccccc1)NC(=O)c1ccc(C(=O)NCc2ccc(NC(=O)OCc3ccccc3)cc2)o1", "values": [
      {"measurement": "IC50", "setting": "[1]", "value": 1060, "unit": "nM"},
      {"measurement": "Ki", "setting": "[2]", "value": 1080, "unit": "nM"}
    ]},
    {"molecule": "CO/N=C(/N)c1ccc(-n2cc(-c3cccc(/C(N)=N\\OC)c3)nn2)cc1", "values": [
      {"measurement": "Activity", "setting": "[3]", "value": 100, "unit": "%"},
      {"measurement": "ED50", "setting": "[4]", "value": 5, "unit": "mg/kg"}
    ]},
    {"molecule": "COc1ccc2c(c1)nc(-c1cccc(CNCCCN3CCN(CCCNCc4cccc(-c5nc6ccc(OC)cc6n6cccc56)c4)CC3)c1)c1cccn12", "values": [
      {"measurement": "IC50", "setting": "[5]", "value": 170, "unit": "nM"},
      {"measurement": "IC50", "setting": "[6]", "value": 40, "unit": "nM"},
      {"measurement": "selectivity ratio", "setting": "[7]", "value": 39.2}
    ]},
    {"molecule": "C[n+]1c2ccccc2cc2[n-]c3ccccc3c21", "note": "[CRYPTOLEPINE]", "values": [
      {"measurement": "MIC50", "setting": "[8]", "value": 1.46, "unit": "nM"},
      {"measurement": "MIC50", "setting": "[9]", "value": 1.02, "unit": "nM"},
      {"measurement": "IC50", "setting": "[10]", "value": 19.6, "unit": "nM"},
      {"measurement": "MIC50", "setting": "[11]", "value": 4.18, "unit": "nM"}
    ]},
    {"molecule": "C/C1=C\\C(=O)O[C@@H](C(C)(C)C)CCC[C@@H](O)CCC[C@H](O)CCC[C@H](O)CCC[C@@H](O)C[C@H](O)C[C@@H](O)CCC[C@H](O)CCC[C@H](O)C[C@@H](O)CCCCC1", "values": [
      {"measurement": "IC50", "setting": "[12]", "value": 270, "unit": "nM"},
      {"measurement": "IC50", "setting": "[13]", "value": 80, "unit": "nM"},
      {"measurement": "IC50", "setting": "[14]", "value": 140, "unit": "nM"},
      {"measurement": "IC50", "setting": "[15]", "value": 90, "unit": "nM"}
    ]},
    {"molecule": "c1ccc(CCC2(CCc3ccccc3)OOC(CCc3ccccc3)(CCc3ccccc3)OO2)cc1", "values": [
      {"measurement": "IC50", "setting": "[16]", "value": 1600, "unit": "nM"}
    ]},
    {"molecule": "C/C1=C\\[C@H](C)[C@@H](O)C[C@@H](O)/C(C)=C/[C@H](C)C[C@@H](C)CC[C@@H]([C@@H](C)C(=O)O)OC(=O)[C@@H](C)C1", "values": [
      {"measurement": "IC50", "setting": "[17]", "value": 128, "unit": "nM"},
      {"measurement": "IC50", "setting": "[18]", "value": 180, "unit": "nM"}
    ]},
    {"molecule": "O=C(O)c1cn(-c2ccc(Cl)cc2)nc1-c1ccccc1", "values": [
      {"measurement": "Activity", "setting": "[19]", "value": 97, "unit": "%"},
      {"measurement": "IC50", "setting": "[20]", "value": 33, "unit": "nM"}
    ]},
    {"molecule": "c1cc(CNCCCN2CCN(CCCNCc3cccc(-c4nc5ccccc5n5cccc45)c3)CC2)cc(-c2nc3ccccc3n3cccc23)c1", "values": [
      {"measurement": "IC50", "setting": "[5]", "value": 50, "unit": "nM"},
      {"measurement": "IC50", "setting": "[6]", "value": 370, "unit": "nM"},
      {"measurement": "selectivity ratio", "setting": "[21]", "value": 40.6}
    ]},
    {"molecule": "CC(=O)N1CCN(c2ccc(CN(C(=O)/C=C/c3ccc(C(F)(F)F)cc3)[C@@H](Cc3ccccc3)C(=O)N3CCN(Cc4ccc(N(C)CCO)cc4)CC3)cc2)CC1", "values": [
      {"measurement": "ED90", "setting": "[22]", "value": 54.4, "unit": "mg/kg"}
    ]}
  ]
}
